# Structures can show the parent of a compound that is named as a salt. Where two headings read alike, the source gives them in different places.
# Molecular target: T1, mGluR5 receptor (Sus scrofa, UniProt I3LUI7)
# T1 construct: 450 μg of protein from brain homogenate with 5 nM ^3[H]-MPEP; from tissue; host or cells: pig brain halves without medulla, cerebellum and pons
# Assay: [3H]-MPEP mGluR5 receptor binding assay (pig brain homogenate)
# Conditions: 5 nM [3H]-MPEP; for inhibition at 10 µM / % Inhibition of mGluR5 Receptor (pig) [^3H]-MPEP Bond at 10 μM: 10 μM compound; for inhibition at 10 µM: read-out: % Inhibition of mGluR5 Receptor (pig) [^3H]-MPEP Bond at 10 μM
# Procedure: I. Method for Determining the Inhibition of the [^3H]-MPEP Bond in the mGluR5 Receptor Binding Assay
# Pig brain homogenate is produced by homogenizing (Polytron PT 3000, Kinematica AG, 10 000 rpm for 90 seconds) pig brain halves without medulla, cerebellum and pons in pH 8.0 buffer (20 mM Hepes, Sigma, order no. H3375+1 complete tablet, 100 ml, Roche Diagnostics, order no. 1836145) in the ratio of 1:20 (brain weight/volume) and differential centrifuging at 900×g and 40 000×g. In incubation batches of 250 μl in 96-well microtitre plates 450 μg of protein from brain homogenate with 5 nM ^3[H]-MPEP (Tocris, order no. R1212) (MPEP=[…]) and the compounds to be examined (10 μM in test) in buffer (as above) are respectively incubated at room temperature for 60 minutes.
# The batches are then filtered using a Brandel cell harvester (Brandel, Robotic 9600) on unifilter plates with fibreglass filter mats (Perkin Elmer, order no. 6005177) and then washed with buffer (as above) 3-times each with 250 μl per sample. The filter plates are then dried for 60 mins. at 55° C. Then, 30 μL of Ultima Gold™ scintillator (Packard BioScience, order no. 6013159) are added per well and after 3 hours the samples are measured on the β-counter (MicroBeta, Perkin Elmer). The non-specific binding is determined by adding 10 μM of MPEP (Tocris, order no. 1212).
# [1] = read-out: IC50 mGluR5 Receptor (pig) [^3H]-MPEP Bond
# T1 sequence (I3LUI7 19-1212): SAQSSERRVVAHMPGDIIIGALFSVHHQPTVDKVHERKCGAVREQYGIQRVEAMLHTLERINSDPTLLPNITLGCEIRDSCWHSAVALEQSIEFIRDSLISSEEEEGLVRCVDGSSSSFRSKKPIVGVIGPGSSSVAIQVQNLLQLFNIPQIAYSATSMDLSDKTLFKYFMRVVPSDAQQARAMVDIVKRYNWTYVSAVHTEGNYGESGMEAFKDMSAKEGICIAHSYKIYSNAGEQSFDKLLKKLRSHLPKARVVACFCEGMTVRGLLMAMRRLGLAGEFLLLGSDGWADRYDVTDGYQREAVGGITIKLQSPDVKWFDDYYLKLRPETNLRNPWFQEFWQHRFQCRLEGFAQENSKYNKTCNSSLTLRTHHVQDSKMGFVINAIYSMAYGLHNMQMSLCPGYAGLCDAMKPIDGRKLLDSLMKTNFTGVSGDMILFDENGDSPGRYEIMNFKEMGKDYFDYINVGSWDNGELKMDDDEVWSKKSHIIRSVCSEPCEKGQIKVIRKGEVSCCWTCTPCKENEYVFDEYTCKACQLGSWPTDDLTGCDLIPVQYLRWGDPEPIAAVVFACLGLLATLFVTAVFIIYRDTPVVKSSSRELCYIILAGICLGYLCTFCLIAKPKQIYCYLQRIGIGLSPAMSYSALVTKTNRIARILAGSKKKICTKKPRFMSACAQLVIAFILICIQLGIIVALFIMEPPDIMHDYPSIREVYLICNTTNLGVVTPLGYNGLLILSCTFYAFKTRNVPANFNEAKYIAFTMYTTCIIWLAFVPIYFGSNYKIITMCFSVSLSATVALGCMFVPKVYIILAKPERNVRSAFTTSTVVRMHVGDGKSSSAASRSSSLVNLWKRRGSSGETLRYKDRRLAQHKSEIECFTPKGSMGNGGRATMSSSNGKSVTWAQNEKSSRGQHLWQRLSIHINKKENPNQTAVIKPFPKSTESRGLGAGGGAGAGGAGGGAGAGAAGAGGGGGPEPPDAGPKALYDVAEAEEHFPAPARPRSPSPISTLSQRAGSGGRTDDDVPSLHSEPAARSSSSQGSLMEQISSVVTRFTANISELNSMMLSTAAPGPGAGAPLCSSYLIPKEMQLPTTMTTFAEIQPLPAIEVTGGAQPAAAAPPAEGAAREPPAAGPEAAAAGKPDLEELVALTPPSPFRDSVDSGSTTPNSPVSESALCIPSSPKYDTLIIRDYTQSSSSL
SMILES,inhibition at 10 µM [%],also measured
"O=C(c1ccc(Cl)nc1)N(Cc1cccc(-c2ccc3ncnc(NC4CC4)c3c2)c1)C1CC1 [Example 179, 6-chloro-N-cyclopropyl-N-[3-(4-cyclopropylamino-quinazolin-6-yl)-benzyl]-nicotinamide]",89,–
"CS(=O)(=O)N(Cc1ccccc1)Cc1cccc(-c2ccc3ncnc(NC4CC4)c3c2)c1 [Example 222, N-benzyl-N-(3-(4-(cyclopropylamino)quinazolin-6-yl)benzyl)methane sulfonamide]",–,IC50 [1]: 4610 nM
"CC(=O)N(Cc1ccccc1)Cc1cccc(-c2ccc3ncnc(NC4CC4)c3c2)c1 [Example 219, N-benzyl-N-[3-(4-cyclopropylamino-quinazolin-6-yl)-benzyl]-acetamide; hydrochloride]",45,–
"CC(=O)N(Cc1cccc(-c2ccc3ncnc(NC4CC4)c3c2)c1)Cc1ccco1 [Example 216, N-[3-(4-cyclopropylamino-quinazolin-6-yl)-benzyl]-N-furan-2-yl-methyl-acetamide]",–,IC50 [1]: 1500 nM
"O=S(=O)(c1cccc(C(F)(F)F)c1)N(Cc1cc(-c2ccc3ncnc(NC4CC4)c3c2)ccc1Cl)C1CC1 [Example 778, N-(2-chloro-5-(4-(cyclopropylamino)quinazolin-6-yl)benzyl)-N-cyclopropyl-3-(trifluoromethyl)benzole sulfonamide]",–,% Inhibition of mGluR5 Receptor (pig) [^3H]-MPEP Bond at 10 μM: 84%
"O=C(c1cccnc1)N(Cc1cc(-c2ccc3ncnc(NC4CC4)c3c2)ccc1Cl)C1CC1 [Example 770, N-(2-chloro-5-(4-(cyclopropylamino)quinazolin-6-yl)benzyl)-N-cyclopropyl nicotinamide]",–,% Inhibition of mGluR5 Receptor (pig) [^3H]-MPEP Bond at 10 μM: 84%
"ClCCNCc1cccc(-c2ccc3ncnc(NC4CC4)c3c2)c1 [Example 315, 6-(3-((2-chloroethylamino)methyl)phenyl)-N-cyclopropylquinazoline-4-amine]",–,IC50 (IC50 mGluR5 Receptor (pig) [^3H]-MPEP Bond): 2740 nM
"N#Cc1ccc(C(=O)N(Cc2cccc(-c3ccc4ncnc(NC5CC5)c4c3)c2)C2CC2)cc1 [Example 161, 4-cyano-N-cyclopropyl-N-[3-(4-cyclopropylamino-quinazolin-6-yl)-benzyl]-benzamide]",96,–
"CCCC(=O)N(Cc1ccccc1)Cc1cccc(-c2ccc3ncnc(NC(C)C)c3c2)c1 [Example 148, N-benzyl-N-[3-(4-isopropylamino-quinazolin-6-yl)-benzyl]-butyramide]",40,–
"O=C1COCC(=O)N1Cc1cc(-c2ccc3ncnc(NC4CC4)c3c2)ccc1F [Example 189, 4-(5-(4-(cyclopropylamino)quinazolin-6-yl)-2-fluorobenzyl)morpholine-3,5-dione]",–,IC50 [1]: 210 nM
"O=C(CCl)N(Cc1cc(-c2ccc3ncnc(NC4CC4)c3c2)ccc1F)C1CC1 [Example 283, 2-chloro-N-cyclopropyl-N-(5-(4-(cyclopropylamino)quinazolin-6-yl)-2-fluorobenzyl)acetamide]",–,IC50 [1]: 290 nM
"CC(=O)N(Cc1cccc(-c2ccc3ncnc(NC4CC4)c3c2)c1)C(C)=O [Example 879, N-acetyl-N-(3-(4-(cyclopropylamino)quinazolin-6-yl)benzyl)acetamide]",–,IC50 [1]: 1660 nM
"O=C(c1ccc(C(F)(F)F)cc1F)N(Cc1ccccc1)Cc1cccc(-c2ccc3ncnc(NC4CC4)c3c2)c1 [Example 152, N-benzyl-N-[3-(4-cyclopropylamino-quinazolin-6-yl)-benzyl]-2-fluoro-4-trifluoromethyl-benzamide]",45,–
"CC(c1cccc(-c2ccc3ncnc(NC4CC4)c3c2)c1)N(C1CC1)S(C)(=O)=O (centres unmarked) [Example 231, N-cyclopropyl-N-(1-(3-(4-(cyclopropylamino)quinazolin-6-yl)phenyl)ethyl)methane sulfonamide]",–,IC50 [1]: 5720 nM
"O=C(CC(F)(F)F)N(Cc1cc(-c2ccc3ncnc(NC4CC4)c3c2)ccc1F)C1CC1 [Example 282, N-cyclopropyl-N-(5-(4-(cyclopropylamino)quinazolin-6-yl)-2-fluorobenzyl)-3,3,3-trifluoropropanamide]",–,IC50 [1]: 50 nM
"O=C(c1c(F)c(F)c(F)c(F)c1F)N(Cc1cccc(-c2ccc3ncnc(NC4CC4)c3c2)c1)C1CC1 [Example 254, N-cyclopropyl-N-[3-(4-cyclopropylamino-quinazolin-6-yl)-benzyl]-2,3,4,5,6-pentafluoro-benzamide]",–,IC50 [1]: 600 nM
"O=C(c1cccs1)N(Cc1cccc(-c2ccc3ncnc(NC4CC4)c3c2)c1)C1CC1 [Example 178, thiophene-2-carboxylic acid cyclopropyl-[3-(4-cyclopropylamino-quinazolin-6-yl)-benzyl]-amide]",84,–
"CC(C)(C)Nc1ncnc2ccc(-c3ccc(F)c(CN(C(=O)c4ccco4)C4CC4)c3)cc12 [Example 807, N-(5-(4-(tert-butylamino)quinazolin-6-yl)-2-fluorobenzyl)-N-cyclopropyl furan-2-carboxamide]",–,% Inhibition of mGluR5 Receptor (pig) [^3H]-MPEP Bond at 10 μM: 90%
"CC(=O)N(Cc1cc(F)cc(-c2ccc3ncnc(NC4CC4)c3c2)c1)C1CC1 [Example 897, N-cyclopropyl-N-(3-(4-(cyclopropylamino)quinazolin-6-yl)-5-fluorobenzyl)acetamide]",–,IC50 [1]: 20 nM
"CNc1ncnc2ccc(-c3cccc(CN(c4ccccc4F)S(=O)(=O)c4ccccc4)c3)cc12 [Example 852, N-(2-fluorophenyl)-N-(3-(4-(methylamino)quinazolin-6-yl)benzyl)benzole sulfonamide]",–,% Inhibition of mGluR5 Receptor (pig) [^3H]-MPEP Bond at 10 μM: 49%

# Second part, led by results:
inhibition at 10 µM [%],SMILES,also measured
83,"CC(C)(C)Nc1ncnc2ccc(-c3ccc(F)c(CN(C(=O)c4ccc(F)cc4F)C4CC4)c3)cc12 [Example 855, N-(5-(4-(tert-butylamino)quinazolin-6-yl)-2-fluorobenzyl)-N-cyclopropyl-2,4-difluorobenzamide]",–
80,"Cc1nc(NC2CC2)c2cc(-c3ccc(F)c(CN(C(=O)c4cccc(C(F)(F)F)c4)C4CC4)c3)ccc2n1 [Example 582, N-cyclopropyl-N-(5-(4-(cyclopropylamino)-2-methylquinazolin-6-yl)-2-fluorobenzyl)-3-(trifluoromethyl)benzamide]",–
67,"COCCNc1ncnc2ccc(-c3cccc(CN4C(=O)CCC4=O)c3)cc12 [Example 867, 1-(3-(4-(2-methoxyethylamino)quinazolin-6-yl)benzyl)pyrrolidine-2,5-dione hydrochloride]",–
36,"CC(C)(C)C(=O)N(Cc1cccc(-c2ccc3ncnc(NCCc4ccccc4)c3c2)c1)C1CC1 [Example 401, N-cyclopropyl-N-(3-(4-(phenethylamino)quinazolin-6-yl)benzyl)pivalamide]",–
62,"O=C(c1ccncc1)N(Cc1cc(-c2ccc3ncnc(NC4CC4)c3c2)ccn1)C1CC1 [Example 823, N-cyclopropyl-N-((4-(4-(cyclopropylamino)quinazolin-6-yl)pyridin-2-yl)methyl)isonicotinamide]",–
34,"Cc1nc(NC2CC2)c2cc(-c3cccc(CN(C(=O)c4ccc(C(F)(F)F)cc4F)C4CC4)c3)ccc2n1 [Example 454, N-cyclopropyl-N-(3-(4-(cyclopropylamino)-2-methylquinazolin-6-yl)benzyl)-2-fluoro-4-(trifluoromethyl)benzamide]",–
67,"Cc1cc2ncnc(NC3CC3)c2cc1-c1cccc(CN(C(=O)c2cc(Cl)cc(Cl)c2)C2CC2)c1 [Example 692, 3,5-dichloro-N-cyclopropyl-N-(3-(4-(cyclopropylamino)-7-methylquinazolin-6-yl)benzyl)benzamide]",–
92,"O=S(=O)(c1cccs1)N(Cc1cc(-c2ccc3ncnc(NC4CC4)c3c2)ccc1F)C1CC1 [Example 407, N-cyclopropyl-N-(5-(4-(cyclopropylamino)quinazolin-6-yl)-2-fluorobenzyl)thiophene-2-sulfonamide]",–
93,"O=C(c1c(F)c(F)c(F)c(F)c1F)N(Cc1cc(-c2ccc3ncnc(NC4CC4)c3c2)ccn1)C1CC1 [Example 803, N-cyclopropyl-N-((4-(4-(cyclopropylamino)quinazolin-6-yl)pyridin-2-yl)methyl)-2,3,4,5,6-pentafluorobenzamide]",–
78,"Cc1nc(NC2CC2)c2cc(-c3ccc(F)c(CN(C(=O)CCc4ccccc4)C4CC4)c3)ccc2n1 [Example 601, N-cyclopropyl-N-(5-(4-(cyclopropylamino)-2-methylquinazolin-6-yl)-2-fluorobenzyl)-3-phenylpropanamide]",–
53,"CC(=O)N(C)Cc1cc(-c2ccc3ncnc(NCc4ccccc4)c3c2)ccc1F [Example 595, N-(5-(4-(benzylamino)quinazolin-6-yl)-2-fluorobenzyl)-N-methylacetamide]",–
92,"O=S(=O)(Cc1ccccc1)N(Cc1cc(-c2ccc3ncnc(NC4CC4)c3c2)ccn1)C1CC1 [Example 805, N-cyclopropyl-N-((4-(4-(cyclopropylamino)quinazolin-6-yl)pyridin-2-yl)methyl)-1-phenylmethane sulfonamide]",–
